{"source": "patent EP1214397B1", "about": "“METHOD FOR THE SELECTIVE PROTECTION OF PROLIFERATING NORMAL CELLS AND THE SELECTIVE ERADICATION OF TUMOR CELLS HAVING AN INACTIVE P53 PATHWAY” (UNIVERSITA' DEGLI STUDI DI ROMA \"LA SAPIENZA\", priority 1999, dated 2001)", "key": {"[1]": {"test_system": "C3H10T1/2", "assay": "Inhibition of cytodieresis and DNA replication, nucleation state and BrdU uptake (Examples 5, 7)", "format": "cell-based, mouse", "experimental": "(§1) Each cell culture was plated on 35mm plates at a 1×10^4cells/plate density, under the standard conditions described in example 1.\n(§2) In a control assay series thereof the sole BrdU and 0.11% DMSO, have been administered to C3H10T1/2 and in C3H10T1/2/v-src-/myc cells respectively, for 24h (T0-T24) as a control of the proliferation phase.\n(§3) In each of the above assays CD and BrdU concentrations are the same, namely 400 nM and […] respectively. The administration was carried out on strictly proliferating cells. The contemporaneous measurement of BrdU uptake and %S has ensured the highest stringency of results on DNA replication. Percentage of mononucleate, binucleate, tri/tetranucleate and with >4 nuclei resulting cells has been also measured. After treatment, cells have been processed and analyzed as reported in reference 18.\n(§4) In particular the first assay series of example 5 has been carried out with 650 nM Latrunculin B, 700 nM Jasplakinolide, and 100 nM condramide B instead of CD. The second assay series of example 5 has been carried out with 16 µM 13,14,21,22-tetrahydrocytochalasin B, 2 µM 21,22-dihydrocytochalasin B, 1 µM deoxyphomin, 4 µM Cytochalasin F (CF) 8 µM Cytochalasin V (CV) , and 0,5 µM CD as a control on MEF cells."}, "[2]": {"test_system": "C3H10T1/2v-src/v-myc", "assay": "Inhibition of cytodieresis and DNA replication, nucleation state and BrdU uptake (Examples 5, 7)", "format": "cell-based, mouse", "experimental": "as §1, §2, §3, §4"}, "[3]": {"test_system": "C3H 10T1/2(v-src/v-myc)", "assay": "Colony forming assay, interference with 3FT toxic effects on tumor cells (Example 6)", "format": "cell-based, mouse", "settings": "5×10^2 cell/60mm; 400 nM CD or 3 µM CB T0-T84; 30 µM 3FT T24-T72; untreated 111", "experimental": "In order to verify any possible interference between CD and 3FT actions on tumor cells, a series of colony forming assays has been carried out on C3H 10T1/2(v-src/v-myc).\nThe cells have been therefore plated on 60mm plates at a 5×10^2 cell/60mm density, at the culture conditions described in example 3, and the initial time of 12 hours have been subjected to the following treatments.\nAfter the above administrations, cells were treated as described in example 3."}, "[4]": {"test_system": "dermal fibroblasts (MDF)", "assay": "Nuclei number state after cytochalasin D, wild-type control cells (Example 1)", "format": "cell-based, mouse", "settings": "CD for 72 h", "excerpt": "(§5) In order to verify which molecular factors cause multinucleation in tumor cells and thereby identify tumor cells and tumor forms where binucleation/multinucleation differential status is applicable to, an assay series directed to verify such forms to be ascribable to the loss of one or more genes regulating cell functions, has been carried out. Such assays have been in particular carried out on cells deriving from mice knock-out for the sole Rb (retinoblastoma), p21 or p53 function.\n(§6) Each cell culture was plated on 35mm plates at a 1×10^4cells/plate density, under the following conditions considered herein as standard conditions. Cells were grown on a plastic substrate (Falcon-BD), in a culture medium made of Dulbecco's modified Eagle's Medium supplemented with 2mM L-glutamine, antibiotics, 10% fetal bovine serum, at 37°C with 5% CO2 and 90% humidity. The following assays have been therefore carried out.\n(§7) In an initial time of 12 hours c.ca (step common also to the other assays herein reported) cells were allowed to grow up, but within a density allowing their proliferation, thus ensuring the utmost reliability of the assay result, that otherwise could be altered by cells arrested for reasons other than compound administration. […]\n(§8) The administration was carried out on strictly proliferating cells. After treatment, cells were processed and analyzed."}, "[5]": {"test_system": "MEF", "assay": "Nuclei number state after cytochalasin D, wild-type control cells (Example 1)", "format": "cell-based, mouse", "settings": "CD for 72 h", "excerpt": "as §5, §6, §7, §8"}, "[6]": {"test_system": "L cells", "assay": "Colony formation assay, monoculture (Example 4)", "format": "cell-based", "settings": "5×10^2 cells, 400 nM CD T0-T84, 40 µM 3FT T24-T72", "excerpt": "In order to quantify the effects of the combined CD/3FT use of the above example 3, the first, second and third assay series described in example 4 has been carried out on monocultures at a cell density allowing countable colonies.\nThe culture conditions, compounds concentrations, and treatments are the same described in example 3, with the exception of the cell system used have been for the first assay series a monoculture of C3H 10T1/2 cells at the clonal densities of 1×10^3, 5×10^3 and 1×10^4, for the second assay series a monoculture of C3H 10T1/2v-src/v-myc cells at the clonal densities of 5×10^2, 1×10^3 and 5×10^3, and for the third assay series a monoculture of L cells at the clonal densities of 5×10^2, 1×10^3 and 5×10^3."}, "[7]": {"test_system": "C3H10T1/2v-src/v-myc", "assay": "Focus-forming assay, culture of tumor cells alone (Examples 3, 9)", "format": "cell-based, mouse", "settings": "C3H10T1/2 v-src/v-myc alone, 5×10^2 cells per plate, percentage of treated with respect to untreated (=100), 400 nM CD T0-T84, class B drug T24-T72 (40 µM 3FT, 80 µM 2ClAd, 40µM Ara C)"}, "[8]": {"test_system": "human lung fibroblasts transformed with E7 (HF E7)", "assay": "Nuclei number state after cytochalasin D (Example 2)", "format": "cell-based", "settings": "400 nM CD for 72 h", "experimental": "as §6\nIn an initial time of 12 hours c.ca (step common also to the other assays herein reported) cells were allowed to grow up, but within a density allowing their proliferation, thus ensuring the utmost reliability of the assay result, that otherwise could be altered by cells arrested for reasons other than compound administration. After this first step the following administrations have been carried out.\nE6 is in fact an oncogene, the product thereof being capable of sequestering and inhibiting the p53 function, whereas E7 is another oncogene, the product thereof being capable of sequestering the Rb function. This assay series accordingly allows in fact to extend also to human cells the growth arrest, at the binucleate stage, by CD, as due to an active p53 pathway in normal cells, and at the same time it confirms the non-implication of Rb therein.\nAfter the initial time of 12 h c.ca (see above) the following assays have been in particular carried out.\nIn a third assay series 400 nM CD for 72 h (T0-T72) and 0.11% DMSO for 72 h (T0-T72) as a control thereof, have been administered to human lung fibroblasts transformed with E7 (HF E7)."}, "[9]": {"test_system": "normal cells", "assay": "Dose/response: concentration arresting normal cells in the intermitotic phase (CAP)", "format": "cell-based", "settings": "standard conditions", "experimental": "It generally results in cell cycle arrest at the binucleate stage in at least 40% of class A compounds treated proliferating normal cells, using the minimal drug concentration (i.e. sufficient to reversible induce its effects, on target cells, without causing significant damage, experimentally defined by dose/response curves), giving the above result without significant toxicity and an incubation time generally ranging from 12 to 48 hours depending on cell type.\nAs to the CAP parameter, the corresponding value is a class A compound concentration causing the arrest of at least the 40% of normal cells in the intermitotic stage; such concentration is experimental deduced by dose/response experiments that define the appropriate value range for different cell types and compounds.\nFor the above class A compounds, under standard conditions this value ranges within 1 nM to 40 µM concentrations.. […]\nIn the light of these tests, the CAP and CACT values to be assigned to several class A compounds as the concentration range yielding the cytodieresis arrest, and, within said concentration range, the value of the minimum concentration required for attaining this effect, forming the preferred embodiment, has been determined. […]"}, "[10]": {"test_system": "mouse embryofibroblast (MEF) cells knock out for Rb", "assay": "Nuclei number state after cytochalasin D in knock-out cells (Example 1)", "format": "cell-based", "settings": "400 nM CD for 72 h", "excerpt": "as §5, §6, §7, §8"}, "[11]": {"test_system": "mouse embryofibroblast (MEF) cells knock out for p21", "assay": "Nuclei number state after cytochalasin D in knock-out cells (Example 1)", "format": "cell-based", "settings": "400 nM CD for 72 h", "excerpt": "as §5, §6, §7, §8"}}, "note": "Values joined by “and” are separate entries in the source; they are usually repeats but may differ in a detail not shown here. Equal values may be shown once."}
{"smiles": "C=C1[C@@H](C)[C@H]2[C@H](Cc3ccccc3)NC(=O)[C@]23[C@H](OC(C)=O)/C=C/[C@@](C)(O)C(=O)[C@@H](C)C/C=C/[C@H]3[C@@H]1O", "note": "[cytochalasin D]", "values": [{"measurement": "% 2N", "setting": "[1]; C3H10T1/2, drug T0-T48, concentration printed with the drug (CD 400 nM)", "value": 67, "unit": "%"}, {"measurement": "plated cells still capable of uptaking the BrdU (reversibility)", "setting": "[1]; CD T0 to T48, rest T48 to T72, BrdU T72 to T96, control 97%", "value": 96, "unit": "%"}, {"measurement": "mononucleate cells after drug removal (reversibility)", "setting": "[1]; CD T0 to T48, rest T48 to T72, BrdU T72 to T96, control 98%", "value": 92, "unit": "%"}, {"measurement": "three-tetranucleate or even with >4 nuclei cells", "setting": "[1]; normal cells, 400 nM CD T0-T48", "value": 6, "unit": "%"}, {"measurement": "percentage of cells entering in S phase (%S)", "setting": "[1]; normal cells, 400 nM CD T0-T48, BrdU T24-48", "value": 23, "unit": "%"}, {"measurement": "% 2N", "setting": "[2]; C3H10T1/2v-src/v-myc, drug T0-T48, concentration printed with the drug (CD 400 nM)", "value": 35, "unit": "%"}, {"measurement": "percentage of cells entering in S phase (%S)", "setting": "[2]; transformed cells, 400 nM CD T0-T48, BrdU T24-48", "value": 88, "unit": "%"}, {"measurement": "three-tetranucleate or even with >4 nuclei cells", "setting": "[2]; tumor cells, 400 nM CD T0-T48", "value": 47, "unit": "%"}, {"measurement": "Colonies", "setting": "[3]", "value": 46}, {"measurement": "nuclei number state", "setting": "[4]", "value": "arrest into a binucleate stage"}, {"measurement": "nuclei number state", "setting": "[5]", "value": "arrest into a binucleate stage"}, {"measurement": "number of colonies", "setting": "[6]", "value": 55}, {"measurement": "number of transformation foci", "setting": "[7]", "value": "slight decrease"}, {"measurement": "number of transformation foci", "setting": "[7]; listed as CD", "value": "24 and 28"}, {"measurement": "%>4N", "setting": "[8]; >4 nuclei cells", "value": 1, "unit": "%"}, {"measurement": "% 2N", "setting": "[8]; binucleate cells", "value": 42, "unit": "%"}, {"measurement": "%1N", "setting": "[8]; mononucleate cells", "value": 54, "unit": "%"}, {"measurement": "%3-4N", "setting": "[8]; tri-tetranucleate cells", "value": 3, "unit": "%"}, {"measurement": "CAP, minimum functional concentration for arrest in intermitotic phase of normal cells", "setting": "[9]", "value": 400, "unit": "nM"}, {"measurement": "nuclei number state", "setting": "[10]", "value": "arrest into a binucleate stage"}, {"measurement": "nuclei number state", "setting": "[11]", "value": "arrest into a binucleate stage"}]}
